Experiment [1] relates to human SKM-1 acute myeloid leukemia cells. In words: SKM-1 antiproliferation cell-based assay (ATPlite). The settings on record: Homo sapiens, SKM-1, 96 h, SKM-1 antiproliferation assay, 4 days, Table C2. In a few lines: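 Log-phase cells in RPMI 1640/15% FBS were seeded at 34722 cells/mL and exposed for 4 days to nine-concentration DMSO serial dilutions in triplicate. Viability was read as ATP luminescence (ATPlite 1step), and IC50 values came from variable-slope non-linear regression.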
In general terms: In ATP-based viability assays light output follows the ATP content of the culture.

Experiment [2] has as its target T1, human BRD4 bromodomain II (Homo sapiens, UniProt O60885).
T1 construct: human BRD4 bromodomain II [based on Genbank NM_058243, residues 349-460]; host or cells: E. coli
The experiment is described as follows: Bromodomain binding assay (AlphaScreen), BRD4 BDII. The settings on record: AlphaScreen assay, Table C2; read-out: BRD4 BDII IC50. In a few lines: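 Compounds (10-point, 3-fold series) were preincubated 30 min at room temperature with E. coli-expressed N-terminal His6-tagged BRD4 BDII (residues 349-460) or BDI (residues 44-170) in 50 mM HEPES pH 7.5, 100 mM NaCl, 0.05% CHAPS, 0.1% BSA, 1% DMSO. Displacement of biotinylated tetra-acetylated H4 1-21 peptide was read by AlphaScreen; IC50 from curve fitting.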
On the technique in general: Alpha assays give light when donor and acceptor beads are brought close together.

As a reminder, the GI50 is the concentration giving 50% growth inhibition. Low values mean more potent growth inhibition, high ones less potent growth inhibition. Usually IC50 stands for the concentration needed to halve the response being measured. `C[C@@H]1CN(c2cc(-c3cc(F)cc(-c4ccc(-n5ccn(C)c5=O)c(Cl)c4)c3O)cn(CCCO)c2=O)CCN1` [Example 630, (R)-5-(3′-chloro-5-fluoro-2-hydroxy-4′-(3-methyl-2-oxo-2,3-dihydro-IH-imidazol-1-yl)-[1,1′-biphenyl]-3-yl)-1-(3-hydroxypropyl)-3-(3-methylpiperazin-1-yl)pyridin-2(1H)-one]: in experiment [1], the GI50 lay in the range of 30 to 300 nM. Further, the IC50 in experiment [2] was in the range of 0.01 to 1 nM.

For `Cn1ccn(-c2ccc(-c3cc(F)cc(-c4ccnc(N5CCNC(c6ccccc6)C5)c4)c3O)cc2Cl)c1=O` (stereo not shown) [Example 631, 1-(3-chloro-5′-fluoro-2′-hydroxy-3′-(2-(3-phenylpiperazin-1-yl)pyridin-4-yl)-[1,1′-biphenyl]-4-yl)-3-methyl-1H-imidazol-2(3H)-one], the concentration for 50% growth inhibition (GI50) in experiment [1] was 30 to 300 nM. Besides, the IC50 in experiment [2] lay in the range of 0.01 to 1 nM.

In the case of `C[C@H]1CCCN(c2cc(-c3cc(F)cc(-c4ccc(-n5ccn(C)c5=O)c(Cl)c4)c3O)ccn2)C1` [Example 632, (S)-1-(3-chloro-5′-fluoro-2′-hydroxy-3′-(2-(3-methylpiperidin-1-yl)pyridin-4-yl)-[1,1′-biphenyl]-4-yl)-3-methyl-1H-imidazol-2(3H)-one], the GI50 in experiment [1] was 300 to 3000 nM. The IC50 in experiment [2] was 10 to 100 nM.

Take `COCCCN1CCN(c2cc(-c3cc(F)cc(-c4ccc(-n5ccn(C)c5=O)c(Cl)c4)c3O)ccn2)CC1` [Example 633, 1-(3-chloro-5′-fluoro-2′-hydroxy-3′-(2-(4-(3-methoxypropyl)piperazin-1-yl)pyridin-4-yl)-[1,1′-biphenyl]-4-yl)-3-methyl-1H-imidazol-2(3H)-one]: the 50% growth inhibitory concentration (GI50) in experiment [1] lay within 0.3 to 30 nM. Also, the half-inhibitory concentration (IC50) in experiment [2] lay within 0.01 to 1 nM.

`Cn1ccn(-c2ccc(-c3cc(F)cc(-c4ccnc(N5CCN(C6CCOCC6)CC5)c4)c3O)cc2Cl)c1=O` [Example 634, 1-(3-chloro-5′-fluoro-2′-hydroxy-3′-(2-(4-(tetrahydro-2H-pyran-4-yl)piperazin-1-yl)pyridin-4-yl)-[1,1′-biphenyl]-4-yl)-3-methyl-1H-imidazol-2(3H)-one]: the GI50 in experiment [1] is 0.3 to 30 nM. In addition, the IC50 in experiment [2] was 0.01 to 1 nM.

As to `Cn1ccn(-c2ccc(-c3cc(F)cc(-c4ccnc(N5CC[C@H](N6CCOCC6)C5)c4)c3O)cc2Cl)c1=O` [Example 635, (S)-1-(3-chloro-5′-fluoro-2′-hydroxy-3′-(2-(3-morpholinopyrrolidin-1-yl)pyridin-4-yl)-[1,1′-biphenyl]-4-yl)-3-methyl-1H-imidazol-2(3H)-one], the GI50 in experiment [1] was 0.3 to 30 nM. For the same compound, in experiment [2], the IC50 lay within 1 to 10 nM.

`Cn1ccn(-c2ccc(-c3cc(F)cc(-c4ccnc(N5CCC6(CCCN6)C5)c4)c3O)cc2Cl)c1=O` (stereo not shown) [Example 636, 1-(3′-(2-(1,7-diazaspiro[4.4]nonan-7-yl)pyridin-4-yl)-3-chloro-5′-fluoro-2′-hydroxy-[1,1′-biphenyl]-4-yl)-3-methyl-1H-imidazol-2(3H)-one] registered a GI50 in experiment [1] of 0.3 to 30 nM. Besides, the IC50 in experiment [2] was 0.01 to 1 nM.

As to `CN1CCCC12CCN(c1cc(-c3cc(F)cc(-c4ccc(-n5ccn(C)c5=O)c(Cl)c4)c3O)ccn1)C2` (stereo not shown) [Example 637, 1-(3-chloro-5′-fluoro-2′-hydroxy-3′-(2-(1-], the GI50 in experiment [1] lay within 0.3 to 30 nM. Further, the IC50 in experiment [2] was in the range of 0.01 to 1 nM.

Consider `C[C@@H]1CN(c2cc(-c3cc(F)cc(-c4ccc(-n5ccn(C)c5=O)c(Cl)c4)c3O)cc(OCCCO)n2)CCN1` [Example 638, (R)-1-(3-chloro-5′-fluoro-2′-hydroxy-3′-(2-(3-hydroxypropoxy)-6-(3-methylpiperazin-1-yl)pyridin-4-yl)-[1,1′-biphenyl]-4-yl)-3-methyl-1H-imidazol-2(3H)-one], for which, in experiment [1], the GI50 was in the range of 0.3 to 30 nM. The IC50 in experiment [2] lay within 0.01 to 1 nM.

For `Cn1ccn(-c2ccc(-c3cc(F)cc(-c4ccnc(N5CCN[C@H](C(C)(C)O)C5)c4)c3O)cc2Cl)c1=O` [Example 639, (S)-1-(3-chloro-5′-fluoro-2′-hydroxy-3′-(2-(3-(2-hydroxypropan-2-yl)piperazin-1-yl)pyridin-4-yl)-[1,1′-biphenyl]-4-yl)-3-methyl-1H-imidazol-2(3H)-one], the 50% growth inhibitory concentration (GI50) in experiment [1] was in the range of 0.3 to 30 nM. The IC50 in experiment [2] was in the range of 0.01 to 1 nM.

As for `Cn1ccn(-c2ccc(-c3cc(F)cc(-c4ccnc(N5CCNC(CCO)C5)c4)c3O)cc2Cl)c1=O` (stereo not shown) [Example 640, 1-(3-chloro-5′-fluoro-2′-hydroxy-3′-(2-(3-(2-hydroxyethyl)piperazin-1-yl)pyridin-4-yl)-[1,1′-biphenyl]-4-yl)-3-methyl-1H-imidazol-2(3H)-one], the GI50 in experiment [1] lay in the range of 0.3 to 30 nM. The IC50 in experiment [2] was 0.01 to 1 nM.

The compound `Cn1ccn(-c2ccc(-c3cc(F)cc(-c4ccnc(N5CCC6(CCN6)C5)c4)c3O)cc2Cl)c1=O` (stereo not shown) [Example 641, 1-(3′-(2-(1,6-diazaspiro[3.4]octan-6-yl)pyridin-4-yl)-3-chloro-5′-fluoro-2′-hydroxy-[1,1′-biphenyl]-4-yl)-3-methyl-1H-imidazol-2(3H)-one] registered a GI50 in experiment [1] of 0.3 to 30 nM. In experiment [2], the IC50 fell in the range of 0.01 to 1 nM.

For `CN1CCC12CCN(c1cc(-c3cc(F)cc(-c4ccc(-n5ccn(C)c5=O)c(Cl)c4)c3O)ccn1)C2` (stereo not shown) [Example 642, 1-(3-chloro-5′-fluoro-2′-hydroxy-3′-(2-(1-methyl-1,6-diazaspiro[3.4]octan-6-yl)pyridin-4-yl)-[1,1′-biphenyl]-4-yl)-3-methyl-1H-imidazol-2(3H)-one], the GI50 in experiment [1] lay in the range of 0.3 to 30 nM. Also, the IC50 in experiment [2] was 0.01 to 1 nM.

For the compound `Cn1ccn(-c2ccc(-c3cc(F)cc(-c4ccnc(N5CCNC(C6CC6)C5)c4)c3O)cc2Cl)c1=O` (stereo not drawn) [Example 643, 1-(3-chloro-3′-(2-(3-cyclopropylpiperazin-l-yl)pyridin-4-yl)-5′-fluoro-2′-hydroxy-[1,1′-biphenyl]-4-yl)-3-methyl-1H-imidazol-2(3H)-one], in experiment [1], the GI50 fell in the range of 30 to 300 nM. For the same compound, the IC50 in experiment [2] was 0.01 to 1 nM.

In experiment [1], `Cn1ccn(-c2ccc(-c3cc(F)cc(-c4ccnc(N5CCN[C@H](CC(N)=O)C5)c4)c3O)cc2Cl)c1=O` [Example 644, (R)-2-(4-(4-(3′-chloro-5-fluoro-2-hydroxy-4′-(3-methyl-2-oxo-2,3-dihydro-1H-imidazol-1-yl)-[1,1′-biphenyl]-3-yl)pyridin-2-yl)piperazin-2-yl)acetamide] returned a GI50 of 0.3 to 30 nM. The IC50 in experiment [2] lay in the range of 0.01 to 1 nM.

`COCCN1CCN(c2cc(-c3cc(F)cc(-c4ccc(-n5ccn(C)c5=O)c(Cl)c4)c3O)ccn2)CC1` [Example 645, 1-(3-chloro-5′-fluoro-2′-hydroxy-3′-(2-(4-(2-methoxyethyl)piperazin-1-yl)pyridin-4-yl)-[1,1′-biphenyl]-4-yl)-3-methyl-1H-imidazol-2(3H)-one] registered a concentration for 50% growth inhibition (GI50) in experiment [1] of 0.3 to 30 nM. In addition, in experiment [2], the IC50 was in the range of 0.01 to 1 nM.

Turning to `Cn1ccn(-c2ccc(-c3cc(F)cc(-c4ccnc(N5CCN(CC6CCC6)CC5)c4)c3O)cc2Cl)c1=O` [Example 646, 1-(3-chloro-3′-(2-(4-(cyclobutylmethyl)piperazin-1-yl)pyridin-4-yl)-5′-fluoro-2′-hydroxy-[1,1′-biphenyl]-4-yl)-3-methyl-1H-imidazol-2(3H)-one], in experiment [1], the GI50 was 0.3 to 30 nM. The IC50 in experiment [2] is 0.01 to 1 nM.

With `Cn1ccn(-c2ccc(-c3cc(F)cc(-c4ccnc(N5CCN6CCOCC6C5)c4)c3O)cc2Cl)c1=O` (stereo not shown) [Example 647, 1-(3-chloro-5′-fluoro-3′-(2-(hexahydropyrazino[2,1-c][1,4]oxazin-8(1H)-yl)pyridin-4-yl)-2′-hydroxy-[1,1′-biphenyl]-4-yl)-3-methyl-1H-imidazol-2(3H)-one], the GI50 in experiment [1] was 0.3 to 30 nM. Besides, in experiment [2], the IC50 is 0.01 to 1 nM.

In experiment [1], `Cn1ccn(-c2ccc(-c3cc(F)cc(-c4ccnc(N5CC6NCCOC6C5)c4)c3O)cc2Cl)c1=O` (stereo not shown) [Example 648, 1-(3-chloro-5′-fluoro-3′-(2-(hexahydropyrrolo[3,4-b][1,4]oxazin-6(2H)-yl)pyridin-4-yl)-2′-hydroxy-[1,1′-biphenyl]-4-yl)-3-methyl-1H-imidazol-2(3H)-one] came in with a GI50 of 0.3 to 30 nM. The half-maximal inhibitory concentration (IC50) in experiment [2] fell in the range of 0.01 to 1 nM.

In experiment [1], `CN1CCOC2CN(c3cc(-c4cc(F)cc(-c5ccc(-n6ccn(C)c6=O)c(Cl)c5)c4O)ccn3)CC21` (stereo not shown) [Example 649, 1-(3-chloro-5′-fluoro-2′-hydroxy-3′-(2-(4-methylhexahydropyrrolo[3,4-b][1,4]oxazin-6(2H)-yl)pyridin-4-yl)-[1,1′-biphenyl]-4-yl)-3-methyl-1H-imidazol-2(3H)-one] yielded a concentration for 50% growth inhibition (GI50) of 30 to 300 nM. For the same compound, in experiment [2], the IC50 is 1 to 10 nM.

For the compound `C[C@@H]1CN(c2cc(-c3cc(F)cc(-c4ccc(-n5ccn(C)c5=O)c(Cl)c4)c3O)cnn2)CCN1` [Example 650, (R)-1-(3-chloro-5′-fluoro-2′-hydroxy-3′-(6-(3-methylpiperazin-1-yl)pyridazin-4-yl)-[1,1′-biphenyl]-4-yl)-3-methyl-1H-imidazol-2(3H)-one], the concentration for 50% growth inhibition (GI50) in experiment [1] lay in the range of 0.3 to 30 nM. The IC50 in experiment [2] is 0.01 to 1 nM.

The compound `Cn1ccn(-c2ccc(-c3cc(F)cc(-c4ccnc(N5CCN(CC(C)(C)C)CC5)c4)c3O)cc2Cl)c1=O` [Example 651, 1-(3-chloro-5′-fluoro-2′-hydroxy-3′-(2-(4-neopentylpiperazin-1-yl)pyridin-4-yl)-[1,1′-biphenyl]-4-yl)-3-methyl-1H-imidazol-2(3H)-one] displayed a GI50 in experiment [1] of 30 to 300 nM. Besides, the IC50 in experiment [2] was in the range of 0.01 to 1 nM.

In turn, `Cn1ccn(-c2ccc(-c3cc(F)cc(-c4ccnc(N5CCN(CC(C)(C)C#N)CC5)c4)c3O)cc2Cl)c1=O` [Example 652, 3-(4-(4-(3′-chloro-5-fluoro-2-hydroxy-4′-(3-methyl-2-oxo-2,3-dihydro-1H-imidazol-1-yl)-[1,1′-biphenyl]-3-yl)pyridin-2-yl)piperazin-1-yl)-2,2-dimethylpropanenitrile] registered a 50% growth inhibitory concentration (GI50) in experiment [1] of 30 to 300 nM. Besides, the IC50 in experiment [2] was 0.01 to 1 nM.

These data come from patent US20250179059A1 (The Regents of the University of California, priority 2021, published 2025).
